Measured values from patent publication US10954305B2 (Immunomedics, Inc., priority 2016, dated 2021).

Key:
[1] = tested on: SK-MES-1 human squamous cell lung tumors; assay: SK-MES-1 xenograft therapy; type: in vivo, nude mice; conditions: 0.4 mg/kg; 28 days
Description: Therapeutic efficacy of hRS7-SN-38 ADC in several solid tumor-xenograft disease models.
Tumor volume (TV) was determined by measurements in 2 dimensions using calipers, with volumes defined as: L×w^2/2, where L is the longest dimension of the tumor and w is the shortest.

BxPC-3 = assay: ADCC of hRS7-ADCs vs hRS7 IgG; type: cell-based, human; conditions: 33.3 nM; effector to target ratio 100:1
Description: The ADCC activity of various hRS7-ADC conjugates was determined in comparison to hRS7 IgG (FIG. 3). PBMCs were purified from blood purchased from the Blood Center of New Jersey. A Trop-2-positive human pancreatic adenocarcinoma cell line (BxPC-3) was used as the target cell line with an effector to target ratio of 100:1. […] All were used at 33.3 nM.

rhTrop-2/TACSTD2 = target: T1, rhTrop-2/TACSTD2 (Homo sapiens, UniProt P09758); assay: surface plasmon resonance binding (BIACORE); conditions: three independent runs
T1 construct: purchased Sino Biological, Inc
T1 sequence (P09758 27-323): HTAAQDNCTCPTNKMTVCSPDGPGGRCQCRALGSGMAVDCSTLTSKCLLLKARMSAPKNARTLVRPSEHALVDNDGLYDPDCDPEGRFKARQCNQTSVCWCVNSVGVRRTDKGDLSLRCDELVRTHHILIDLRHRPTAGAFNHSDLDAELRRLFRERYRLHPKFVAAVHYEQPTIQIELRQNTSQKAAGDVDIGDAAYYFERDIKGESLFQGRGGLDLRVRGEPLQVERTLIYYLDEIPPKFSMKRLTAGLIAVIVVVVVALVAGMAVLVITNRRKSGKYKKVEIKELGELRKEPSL
Description: (§1) Briefly, rhTrop-2/TACSTD2 (Sino Biological, Inc.) or recombinant human neonatal receptor (FcRn), produced as described (Wang et al., 2011, Drug Metab Dispos 39:1469-77), was immobilized with an amine coupling kit (GE Healthcare; Cat. No. BR-1000-50) on a CM5 sensor chip (GE Healthcare; Cat. #BR-1000-12) following manufacturer's instructions for a low-density chip. […] Each set would make up a separate run on the BIACORE (BIACORE-X; Biacore Inc., Piscataway, N.J.) and data were analyzed using BIAevaluation Software (Biacore Inc., v4.1). Analysis was performed with a 1:1 (Langmuir) Binding Model and Fit, using all five concentration points for each sample run to determine the best fit (lowest χ^2 value). The KD value was calculated using the formula KD=kd1/ka1, where kd1 is the dissociation rate-constant and ka1 is the association-rate constant.

[2] = target: T2, human neonatal receptor (FcRn) (Homo sapiens, UniProt P55899); assay: surface plasmon resonance binding (BIACORE); conditions: three independent runs
T2 construct: made in house
T2 sequence (P55899 24-297 limits assumed): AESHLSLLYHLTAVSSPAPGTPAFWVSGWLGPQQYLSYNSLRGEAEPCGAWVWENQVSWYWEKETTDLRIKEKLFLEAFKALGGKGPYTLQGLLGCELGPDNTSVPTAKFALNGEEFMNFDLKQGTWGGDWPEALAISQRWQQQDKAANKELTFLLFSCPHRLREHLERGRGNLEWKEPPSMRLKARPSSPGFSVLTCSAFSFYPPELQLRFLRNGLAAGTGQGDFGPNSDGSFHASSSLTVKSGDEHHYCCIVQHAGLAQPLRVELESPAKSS
T2 sequence (P61769 21-119 partner): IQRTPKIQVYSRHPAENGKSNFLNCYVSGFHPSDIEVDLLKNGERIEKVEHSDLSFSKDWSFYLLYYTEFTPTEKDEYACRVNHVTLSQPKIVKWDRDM
Description: as §1

CDC activity = type: cell-based
[3] = mouse, in vivo
[4] = tested on: triple-negative breast cancer; assay: Phase I/II clinical trial of IMMU-132, TNBC; type: in vivo, human
Source text: […] […] Previous treatments included cyclophosphamide, doxorubicin, carboplatin, gemcitabine, capecitabine, eribulin, cisplatinum, anastrozole, vinorelbine, bevacizumab and tamoxifen. […] The median time to progression in this heavily pretreated population of TNBC patients was 9.4 months, with a range of 2.9 to 14.2 months to date. However, 72% of patients in the study were still ongoing treatment.

[5] = tested on: non-small cell lung cancer; assay: Phase I/II clinical trial of IMMU-132, NSCLC; type: in vivo, human
Description: Out of 29 patients, there were 8 PR and 13 SD. […] The median time to progression was […], with a range from 1.8 to 15.5+ months and 47% of patients still undergoing treatment. Median PFS was 3.4 months at 8 mg/kg and 3.8 months at 10 mg/kg. However, studies are still ongoing and the median progression-free survival numbers are likely to improve.

[6] = tolerability in Cynomolgus monkeys; type: in vivo
Description: FIG. 6C. […] All animals were bled on day −1, 3, and 6. Four monkeys were bled on day 11 in the 0.96 mg/kg group, 3 in the 1.92 mg/kg group. Changes in neutrophil counts in Cynomolgus monkeys.
FIG. 6D. […] All animals were bled on day −1, 3, and 6. Four monkeys were bled on day 11 in the 0.96 mg/kg group, 3 in the 1.92 mg/kg group. Changes in platelet counts in Cynomolgus monkeys.

NCI-N87-S-120 tumors = assay: SN-38-resistant xenograft therapy; conditions: IMMU-132 0.5 mg twice weekly ×4 weeks; irinotecan 40 mg/kg q2dx5
Description: Mice were euthanized once tumors grew to >1.0 cm^3 in size.
NCr female athymic nude (nu/nu) mice, 4 weeks old, were purchased from Taconic Farms. […] Tumor volume (TV) was determined by measurements in two dimensions using calipers, with volumes defined as: L×w^2/2, where L is the longest dimension of the tumor and w the shortest. […] Control mice received each agent alone. […] Mice were euthanized and deemed to have succumbed to disease once tumors grew to >1.0 cm^3 in size.

[7] = tested on: stage IV metastatic gastric cancer; assay: therapy of a gastric cancer patient; type: in vivo, human; conditions: after another 5 courses
[8] = tested on: diverse metastatic solid cancers; assay: Phase I/II clinical trial of IMMU-132, all tumor types; type: in vivo, human
Description: Dose escalation followed a standard 3+3 scheme with 4 planned dose levels and dose delay or reduction allowed. Twenty-five patients (52-60 years old, 3 median prior chemotherapy regimens) were treated at dose levels of 8 (N=7), 10 (N=6), 12 (N=9), and 18 (N=3) mg/kg. […] Lower doses were acceptable for extended treatment with no treatment-related grade 4 toxicities and grade 3 toxicities limited to fatigue (N=3), neutropenia (N=2), diarrhea (N=1), and leukopenia (N=1). […] No pre-selection of patients based on tumor Trop-2 expression was undertaken.
The trial was designed as a standard 3+3 Phase I design, starting at a dose of 8 mg/kg per injection, with dosages given weekly for 2 weeks in a 3-week treatment cycle.
Prior to the start of each infusion, most patients received acetaminophen, anti-histamines (H1 and H2 blockers), and dexamethasone. Prophylactic use of antiemetics or anti-diarrheal medications was prohibited. Therapy consisted of 2 consecutive doses given on days 1 and 8 of a 3-week treatment cycle, with the intent to allow patients to continue treatment for up to 8 cycles (i.e., 16 treatments) unless there was unacceptable toxicity or progression. Patients showing disease stabilization or response after 8 cycles could continue treatments.

[9] = tolerability in Swiss-Webster mice; conditions: normal mice, over 1 week

hRS7 IgG
tumor volume (TV) [1]: 1.30±1.08 cm^3 | specific lysis (ADCC) (BxPC-3): 8.5% | Kd (rhTrop-2/TACSTD2): 0.51 ± 0.04 nM | Kd [2]: 92.4 ± 5.7 nM | CDC activity (CDC activity): no CDC activity

IMMU-132
chloride levels, range [3]: 116 to 127 mmol/L | glucose levels, range ([3]; 8 mg/kg): 273 to 320 mg/dL | confirmed complete responses (CR) ([4]; 10 mg/kg): 2 | partial responses (PR) ([4]; 10 mg/kg): 13 | time to progression, range ([4]; 10 mg/kg): 2.9 to 14.2 months | clinical benefit rate (PR+SD>6 months) ([4]; 17 TNBC patients): 46% | PD ([4]; of 8 assessable patients): 2 | PR ([4]; of 8 assessable patients): 2 | PD ([5]; of 5 assessable patients): 1 | PR ([5]; of 5 assessable patients): 1 | PR ([5]; out of 29 patients, 8 or 10 mg/kg): 8 | primary target lesion at first CT ([5]; person, from 5.6 cm, after 6 doses): 3.2 cm | MTD ([6]; cynomolgus monkey, in vivo): 2×0.96 and 1.92 | human equivalent dose of MTD ([6]; cynomolgus monkey, in vivo): 2×0.3 to 0.6 | blood counts ([6]; cynomolgus monkey, in vivo, 0.96 mg/kg): only transient decreases in blood counts | tolerated dose ([6]; mild and reversible toxicity): 0.96 mg/kg/dose | survival benefit (NCI-N87-S-120 tumors): no significant survival benefit | disease reduction by RECIST at follow-up [7]: about 35% | duration of maintained disease control ([8]; 12 patients): 16-36 weeks | long-term stable disease ([8]; 24 assessable patients, Phase I): Over 80% | disease response ([8]; 48 assessable patients (excluding PDC)): 79% | TTP, range ([8]; 48 patients): 6.0 to 51.4 wks | time to progression (TTP) ([8]; 48 patients): ≥ 12.6 wks | patients with partial response ([8]; Phase I, 25 patients): 3 | patients with progression (PD) ([8]; Phase I, 25 patients): 7 | patients with stable disease ([8]; Phase I, 25 patients): 15 | responses or disease stabilization after prior topoisomerase I inhibitor ([8]; human, in vivo): 7 of 9 | PD ([8]; of 48 assessable patients): 14 | PR ([8]; of 48 assessable patients): 7 | cumulative dose without acute toxicity [9]: 24 mg/kg SN-38
